From ChEMBL document CHEMBL1201862, “PubChem BioAssay data set” (2004)
Activity calls are given as the source filed them.

What was measured:
[1] = biological target: Ephrin type-A receptor 4 (Mus musculus, UniProt Q03137); test: inhibitors of EphA4 binding to KYL peptide, primary screen, biochemical, colorimetric, mouse EphA4 (AID 689); format: functional
[2] = biological target: T1, Estrogen receptor beta (Homo sapiens, UniProt Q92731); test: ERβ–SRC-3 coactivator interaction inhibitors, confirmation, orthogonal assay, biochemical, ELISA, streptavidin-HRP readout (AID 1060)
T1 sequence (Q92731 whole entry): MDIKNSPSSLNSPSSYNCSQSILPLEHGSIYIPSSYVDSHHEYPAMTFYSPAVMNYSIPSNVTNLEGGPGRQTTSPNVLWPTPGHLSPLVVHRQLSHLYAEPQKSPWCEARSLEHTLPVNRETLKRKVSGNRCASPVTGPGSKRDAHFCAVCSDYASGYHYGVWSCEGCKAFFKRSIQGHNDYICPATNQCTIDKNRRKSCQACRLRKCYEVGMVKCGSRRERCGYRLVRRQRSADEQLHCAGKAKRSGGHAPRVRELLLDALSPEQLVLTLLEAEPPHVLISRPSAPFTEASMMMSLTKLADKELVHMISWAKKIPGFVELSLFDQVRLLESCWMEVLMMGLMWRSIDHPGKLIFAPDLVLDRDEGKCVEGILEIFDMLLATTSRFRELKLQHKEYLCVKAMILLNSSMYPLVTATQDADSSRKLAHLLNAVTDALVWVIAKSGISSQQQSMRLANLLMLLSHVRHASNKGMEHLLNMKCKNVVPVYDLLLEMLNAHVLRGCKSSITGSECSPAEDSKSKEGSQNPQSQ

[3] = biological target: T2, Induced myeloid leukemia cell differentiation protein Mcl-1 (Homo sapiens, UniProt Q07820); format: functional
T2 sequence (Q07820 whole entry): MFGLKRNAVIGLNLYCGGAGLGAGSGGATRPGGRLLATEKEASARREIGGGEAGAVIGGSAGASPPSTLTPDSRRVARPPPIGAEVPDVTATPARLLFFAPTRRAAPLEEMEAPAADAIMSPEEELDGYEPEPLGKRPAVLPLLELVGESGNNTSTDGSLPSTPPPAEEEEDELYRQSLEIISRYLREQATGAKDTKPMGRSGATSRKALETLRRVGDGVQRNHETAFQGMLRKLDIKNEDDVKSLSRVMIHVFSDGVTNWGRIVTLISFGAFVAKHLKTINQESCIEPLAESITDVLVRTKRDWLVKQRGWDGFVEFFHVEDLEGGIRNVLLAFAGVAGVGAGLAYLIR

[4] = tested on: Vero; test: host cell cytotoxicity of antiviral hits, dose response, cytotoxicity control for West Nile virus antiviral project, secondary assay (AID 1650); format: functional; conditions: Chlorocebus sabaeus
[5] = biological target: Solute carrier family 12 member 2/member 5 (Homo sapiens, UniProt P55011+Q9H2X9); test: KCC2 and NKCC1 inhibition by rubidium flux, cell-based, NKCC1 counter-screen (AID 1734); format: functional, HEK293
[6] = biological target: T2, Induced myeloid leukemia cell differentiation protein Mcl-1; test: MCL1-BIM BH3 interaction inhibitors, dose response, biochemical, fluorescence polarization, BIM-BH3 peptide, 1536-well (AID 2217)
[7] = biological target: Bcl-2-like protein 1 (Homo sapiens, UniProt Q07817); test: BCL-XL inhibitors, dose response, selectivity assay for MCL1 inhibitor project, biochemical, fluorescence polarization, 1536-well (AID 2218)
Chain of Bcl-2-like protein 1 (Q07817 whole entry): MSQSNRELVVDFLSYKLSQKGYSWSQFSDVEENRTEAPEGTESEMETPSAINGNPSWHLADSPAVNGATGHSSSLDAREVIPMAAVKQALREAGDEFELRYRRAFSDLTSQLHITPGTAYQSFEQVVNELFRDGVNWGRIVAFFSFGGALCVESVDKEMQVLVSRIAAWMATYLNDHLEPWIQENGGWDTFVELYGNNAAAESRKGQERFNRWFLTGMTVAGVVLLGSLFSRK

[8] = biological target: T1, Estrogen receptor beta
[9] = biological target: T3, Tyrosine-protein phosphatase non-receptor type 7 (Homo sapiens, UniProt P35236); test: inhibitors of human HePTP phosphatase, […], biochemical, absorbance, leukemia target (AID 521); format: functional
T3 sequence (P35236 whole entry): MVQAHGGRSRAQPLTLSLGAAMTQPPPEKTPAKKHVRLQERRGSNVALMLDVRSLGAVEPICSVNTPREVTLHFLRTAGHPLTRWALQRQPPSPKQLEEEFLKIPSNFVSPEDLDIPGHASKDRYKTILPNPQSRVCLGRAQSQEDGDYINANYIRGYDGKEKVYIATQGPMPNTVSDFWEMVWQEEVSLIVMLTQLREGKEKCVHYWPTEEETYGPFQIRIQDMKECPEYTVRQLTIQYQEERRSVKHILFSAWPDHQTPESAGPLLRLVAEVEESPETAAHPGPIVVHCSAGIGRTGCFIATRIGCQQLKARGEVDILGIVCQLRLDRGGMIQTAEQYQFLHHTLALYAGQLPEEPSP

[10] = biological target: T4, Bcl-2-like protein 10 (Homo sapiens, UniProt Q9HD36); test: displacers of TR3 peptide from Bcl-B, primary screen, selectivity assay for Bfl-1 inhibitor project, biochemical, fluorescence polarization, FITC-TR3 peptide (AID 748);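 further: fluorescence polarization from a fluorescein-labelled TR3 peptide binding purified Bcl-B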
T4 sequence (Q9HD36 whole entry): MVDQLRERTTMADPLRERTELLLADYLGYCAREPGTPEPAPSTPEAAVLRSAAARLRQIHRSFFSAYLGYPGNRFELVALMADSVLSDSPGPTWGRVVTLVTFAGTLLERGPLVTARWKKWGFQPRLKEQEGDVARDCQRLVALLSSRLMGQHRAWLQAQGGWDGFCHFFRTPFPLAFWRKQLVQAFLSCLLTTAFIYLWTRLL

[11] = biological target: T5, Dual specificity protein phosphatase 6 (Rattus norvegicus, UniProt Q64346); test: MKP-3 phosphatase inhibitors, primary screen, biochemical, rat enzyme, in vitro (AID 425)
T5 sequence (Q64346 whole entry): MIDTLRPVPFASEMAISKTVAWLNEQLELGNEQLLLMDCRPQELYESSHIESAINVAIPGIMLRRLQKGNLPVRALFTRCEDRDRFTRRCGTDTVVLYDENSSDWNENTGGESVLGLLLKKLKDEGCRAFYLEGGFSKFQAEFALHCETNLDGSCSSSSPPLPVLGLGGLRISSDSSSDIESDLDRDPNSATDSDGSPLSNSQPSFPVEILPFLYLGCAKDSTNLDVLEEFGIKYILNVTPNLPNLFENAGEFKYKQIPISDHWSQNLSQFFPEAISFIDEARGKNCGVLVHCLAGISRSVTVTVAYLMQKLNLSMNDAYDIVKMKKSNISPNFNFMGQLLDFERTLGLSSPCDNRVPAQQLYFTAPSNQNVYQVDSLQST

[12] = M. tuberculosis H37Rv growth inhibitors, H37Rv strain (AID 1626); format: functional

Chain of Ephrin type-A receptor 4 (Q03137 whole entry): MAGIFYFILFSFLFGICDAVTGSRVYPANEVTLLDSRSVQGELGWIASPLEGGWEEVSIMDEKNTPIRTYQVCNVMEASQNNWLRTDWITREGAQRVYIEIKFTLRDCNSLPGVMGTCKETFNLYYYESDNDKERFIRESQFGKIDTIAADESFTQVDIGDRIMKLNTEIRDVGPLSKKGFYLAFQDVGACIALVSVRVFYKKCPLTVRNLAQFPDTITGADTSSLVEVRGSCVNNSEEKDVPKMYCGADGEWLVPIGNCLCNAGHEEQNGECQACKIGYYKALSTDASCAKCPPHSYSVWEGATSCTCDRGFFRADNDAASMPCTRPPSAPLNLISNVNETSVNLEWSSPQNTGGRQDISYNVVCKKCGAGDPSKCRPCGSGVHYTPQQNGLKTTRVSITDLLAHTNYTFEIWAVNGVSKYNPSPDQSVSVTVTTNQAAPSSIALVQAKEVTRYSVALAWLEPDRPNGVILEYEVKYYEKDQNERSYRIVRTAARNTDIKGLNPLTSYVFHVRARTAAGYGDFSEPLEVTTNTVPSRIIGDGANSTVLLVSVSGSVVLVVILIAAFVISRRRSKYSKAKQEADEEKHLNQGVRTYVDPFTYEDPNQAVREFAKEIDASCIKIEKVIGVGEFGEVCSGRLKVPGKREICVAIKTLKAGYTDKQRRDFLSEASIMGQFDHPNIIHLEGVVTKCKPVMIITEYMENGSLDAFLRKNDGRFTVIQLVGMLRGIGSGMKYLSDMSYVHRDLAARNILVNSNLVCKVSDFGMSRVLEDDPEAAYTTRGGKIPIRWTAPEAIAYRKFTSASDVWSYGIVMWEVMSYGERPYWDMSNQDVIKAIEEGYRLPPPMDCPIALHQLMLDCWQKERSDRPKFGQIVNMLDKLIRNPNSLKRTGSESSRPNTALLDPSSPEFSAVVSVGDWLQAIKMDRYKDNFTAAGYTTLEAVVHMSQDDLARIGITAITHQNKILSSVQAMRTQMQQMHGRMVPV

## Cc1nc(C)c(C(=O)Nc2nc3c(C)cccc3s2)o1
[1]
  IC50: 11.3 µM (active)
[2]
  IC50: 0.588 µM (not active)
[3]
  IC50: 3.36 µM (active)

## CC(C)n1nc(C(=O)Nc2cccc(S(=O)(=O)NCc3ccco3)c2)c2ccccc2c1=O
[4]
  CC50: 3.81 µM (active)

## Cc1ccc(-c2ccc(S(=O)(=O)NCC3CCCO3)cc2)cc1 (stereo not drawn)
[5]
  IC50: 7.7 µM (active)

## COC(=O)c1ccccc1NC(=O)c1noc2c1CCC2
[6]
  IC50: 13.5 µM (not active)
[2]
  IC50: 9.45 µM (not active)
[7]
  IC50: > 109 µM (not active)
[8]
  IC50: 2.18 µM (active)
[9]
  IC50: 2.33 µM (active)
[10]
  IC50: 16.5 µM (active)
[11]
  IC50: > 10 µM (not active)

## Cn1nc(C(F)(F)F)c(-c2ccc(Br)cc2)c1NC(=O)c1cccnc1
[12]
  IC50: > 100 µM (active)
